Laboratory results: patent US9670469B2, “UDP-glycosyltransferase derived from ginseng and use thereof” (KOREA ADVANCED INSTITUTE OF SCIENCE AND TECHNOLOGY, priority 2012, dated 2017)

Tests used:
PgUGT74A1 and PgUGT94B1 = experiment: Both enzymes reacted with the substrate in a single reaction tube, HPLC; assay type: biochemical, Panax ginseng; settings: UDP-Glc
Description: PPD (upper panel) or C-K (lower panel) was incubated with both of PgUGT74A1 and PgUGT94B1 in the presence of UDP-Glc. Then the reaction mixture was analyzed by HPLC. […] Rg3 and Rd converted by the above two enzymes are marked as black triangles;
(§1) A glycosyltransferase assay was performed in a reaction buffer (10 mM PBS buffer, pH 7) containing the purified PgUGT74A1 or PgUGT94B1 (30 μg), a ginsenoside compound (5 mM) and UDP-glucose (50 mM).
(§2) The reaction mixture was incubated at 35° C. for 12 hours, and then the products were analyzed by thin-layer chromatography (TLC) or high performance liquid chromatography (HPLC).
(§3) HPLC analysis was performed using ODS (2) C18 column (Phenomenex, USA). Water and acetonitrile gradient application time; and a component ratio are as follows: at a flow rate of 1 ml per minute for 0 minute, 68% water and 32% acetonitrile; 8 minutes, 35% water and 65% acetonitrile; 12 minutes, 0% water and 100% acetonitrile; 20 minutes, 0% water and 100% acetonitrile; 20.1 minutes, 68% water and 32% acetonitrile; and 28 minutes, 68% water and 32% acetonitrile.
(§4) Ginsenosides were detected by using a UV-detector (Younglin, Korea) at a wavelength of 203 nm.
In order to confirm this, the above two enzymes were reacted with PPD as a substrate in a single reaction tube. […] In addition, the two enzymes were reacted with C-K as a substrate in a single reaction tube.

PgUGT74A1 [1] = molecular target: T1, PgUGT74A1 (Panax ginseng, UniProt A0A0A6ZFR4); experiment: In vitro glycosyltransferase assay with purified recombinant PgUGT74A1 and UDP-glucose; assay type: biochemical; settings: for ginsenoside into which the substrate is converted by PgUGT74A1: 30 μg enzyme, 5 mM ginsenoside, 50 mM UDP-glucose, 35° C., 12 hours
T1 construct: GST (N); made in house; host or cells: E. coli BL21-CodonPlus (DE3)-RIL
T1 sequence (A0A0A6ZFR4 1-451): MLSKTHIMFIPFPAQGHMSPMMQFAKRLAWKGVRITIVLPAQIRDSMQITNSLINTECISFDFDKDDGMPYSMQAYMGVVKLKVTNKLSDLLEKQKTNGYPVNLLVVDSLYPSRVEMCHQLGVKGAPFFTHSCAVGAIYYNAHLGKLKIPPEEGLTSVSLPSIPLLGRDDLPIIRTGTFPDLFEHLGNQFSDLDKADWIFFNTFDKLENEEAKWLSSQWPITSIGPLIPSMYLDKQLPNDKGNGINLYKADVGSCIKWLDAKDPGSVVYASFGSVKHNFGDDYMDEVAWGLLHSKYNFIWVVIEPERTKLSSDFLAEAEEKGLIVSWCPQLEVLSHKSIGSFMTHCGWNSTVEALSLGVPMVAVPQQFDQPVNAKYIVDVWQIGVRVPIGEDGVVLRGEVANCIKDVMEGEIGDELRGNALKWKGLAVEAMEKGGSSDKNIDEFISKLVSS
Description: as §1, §2
(§5) TLC analysis was performed using a mobile phase (acetone:methanol:DDW=65:35:10 vol/vol) and a 60F254 silica gel plate (Merck, Germany). The resolved product on the TLC plate was detected by spraying the plate with 10% (vol/vol) sulfuric acid (H2SO4) and heating it at 110° C. for 5 minutes.
as §3, §4
First, the recombinant PgUGT of Example 1, PgUGT74A1, was incubated with 10 different types of ginsenosides (PPD, C-K, Rh2, F2, Rg3, Rd, Rg2, Rh1, F1 and PPT) in the presence of UDP-glucose, and the products converted by the recombinant PgUGT were analyzed by TLC.

PgUGT94B1 [2] = molecular target: T2, PgUGT94B1 (Panax ginseng, UniProt A0A0A6ZFY4); experiment: In vitro glycosyltransferase assay with purified recombinant PgUGT94B1 and UDP-glucose; assay type: biochemical; settings: 30 μg enzyme, 5 mM ginsenoside, 50 mM UDP-glucose, 35° C., 12 hours
T2 construct: GST (N); made in house; host or cells: E. coli BL21-CodonPlus (DE3)-RIL
T2 sequence (A0A0A6ZFY4 1-442): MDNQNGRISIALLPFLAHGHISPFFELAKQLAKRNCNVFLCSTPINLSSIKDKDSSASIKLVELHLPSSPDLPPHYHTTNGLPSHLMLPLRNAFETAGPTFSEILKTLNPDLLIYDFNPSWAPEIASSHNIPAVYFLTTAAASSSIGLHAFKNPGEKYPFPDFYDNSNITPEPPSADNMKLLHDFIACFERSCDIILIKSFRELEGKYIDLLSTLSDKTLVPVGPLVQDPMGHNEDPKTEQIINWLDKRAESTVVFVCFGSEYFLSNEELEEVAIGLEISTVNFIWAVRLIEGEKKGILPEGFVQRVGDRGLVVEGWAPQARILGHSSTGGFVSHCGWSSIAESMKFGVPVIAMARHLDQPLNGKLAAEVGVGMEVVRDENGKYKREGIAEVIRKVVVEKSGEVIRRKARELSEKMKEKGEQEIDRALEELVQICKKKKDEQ
Description: as §1, §2, §5, §3, §4
First, the recombinant PgUGT of Example 1, PgUGT94B1, was incubated with 10 different types of ginsenosides (PPD, C-K, Rh2, F2, Rg3, Rd, Rg2, Rh1, F1 and PPT) in the presence of UDP-glucose, and then the products converted by the recombinant PgUGT were analyzed by TLC.

ginseng = experiment: Concentrations of 4 major ginsenosides after spraying MeJA onto the leaf of ginseng; assay type: in vivo, Panax ginseng
Description: MeJA was sprayed on the leaf everyday for a total of 5 days, and on the 6th day after the start of the treatment, samples were collected for the expression analysis. […] Error bars show a standard deviation (SD) of three biological replicates; and
(§6) The 15-month old ginseng grown in a growth chamber under LD conditions was collected, and MeJA was sprayed onto its leaves everyday for a total of 5 days. To analyze expression level of the ginsenoside biosynthetic genes, samples were collected on the 6th days. […] However, expression of PgPPTS was not induced by MeJA under the conditions of the present invention.
In this regard, the concentrations of 4 major ginsenosides were measured after spraying MeJA onto the leaf of ginseng. The treatment of MeJA increased the concentrations of two PPD-type ginsenosides, Rd and Rb1, by 1.55 and 1.14 times respectively (FIG. 6c). In addition, the treatment of MeJA increased the concentrations of two PPT-type ginsenosides, Rg1 and Re, by 2.61 and 1.45 times respectively.

[3] = test system: PgDS (dammarenediol-II synthase); experiment: Quantitative RT-PCR of PgDS in ginseng leaf after MeJA spraying; assay type: in vivo, Panax ginseng; settings: ginseng leaves, 200 μM MeJA sprayed everyday for 5 days, sampled 6th day; normalized to tubulin
Description: (§7) Total RNA was isolated from the leaf or root of 15-month-old ginseng using a spectrum plant total RNA kit (Sigma-Aldrich). 200 μM methyl jasmonate (MeJA) was sprayed onto the leaves of ginseng everyday for a total of 5 days, and samples were collected on the 6th day. The 1 μg of total RNA was used for cDNA synthesis.
(§8) Expression levels of different genes were examined by a quantitative RT-PCR using the primer sets listed in the following Table 2, and the results were normalized to the expression level of tubulin.
as §6

[4] = test system: PgPPDS (protopanaxadiol synthase); experiment: Quantitative RT-PCR of PgPPDS in ginseng leaf after MeJA spraying; assay type: in vivo, Panax ginseng; settings: ginseng leaves, 200 μM MeJA sprayed everyday for 5 days, sampled 6th day; normalized to tubulin
Description: as §7, §8, §6

PgUGT74A1 [5] = experiment: Quantitative RT-PCR of PgUGT74A1 in ginseng leaf after MeJA spraying; assay type: in vivo, Panax ginseng; settings: ginseng leaves, 200 μM MeJA sprayed everyday for 5 days, sampled 6th day; normalized to tubulin
Description: as §7, §8, §6

[6] = test system: PgPPTS (protopanaxatriol synthase); experiment: Quantitative RT-PCR of PgPPTS in ginseng leaf after MeJA spraying; assay type: in vivo, Panax ginseng; settings: ginseng leaves, 200 μM MeJA sprayed everyday for 5 days, sampled 6th day; normalized to tubulin
Description: as §7, §8, §6

PgUGT94B1 [7] = experiment: Quantitative RT-PCR of PgUGT94B1 in ginseng leaf after MeJA spraying; assay type: in vivo, Panax ginseng; settings: ginseng leaves, 200 μM MeJA sprayed everyday for 5 days, sampled 6th day; normalized to tubulin
Description: as §7, §8, §6

CC(C)=CCCC(C)(O)[C@H]1CC[C@]2(C)[C@@H]1[C@H](O)C[C@@H]1[C@@]3(C)CC[C@H](O)C(C)(C)[C@@H]3CC[C@]12C (stereo in doubt) [PPD, Protopanaxadiol]
ginsenoside into which the substrate is converted by PgUGT74A1 plus PgUGT94B1 (PgUGT74A1 and PgUGT94B1): Rg3
ginsenoside into which the substrate is converted by PgUGT74A1 (PgUGT74A1 [1]; HPLC): ginsenoside Rh2
ginsenoside into which the substrate is converted by PgUGT74A1 (PgUGT74A1 [1]; TLC): ginsenoside Rh2
glycosylation by PgUGT74A1 of the hydroxyl groups at the C-12 and C-20 positions (PgUGT74A1 [1]; regioselectivity, positions other than C-3 of PPD): not glycosylated
ginsenoside into which the substrate is converted by PgUGT94B1 (PgUGT94B1 [2]; HPLC): did not convert

CC(C)=CCC[C@](C)(O[C@@H]1O[C@H](CO)[C@@H](O)[C@H](O)[C@H]1O)[C@H]1CC[C@]2(C)[C@@H]1[C@H](O)C[C@@H]1[C@@]3(C)CC[C@H](O)C(C)(C)[C@@H]3CC[C@]12C [C-K, Compound K]
ginsenoside into which the substrate is converted by PgUGT74A1 plus PgUGT94B1 (PgUGT74A1 and PgUGT94B1): Rd
ginsenoside into which the substrate is converted by PgUGT74A1 (PgUGT74A1 [1]; TLC): ginsenoside F2
ginsenoside into which the substrate is converted by PgUGT94B1 (PgUGT94B1 [2]; HPLC): did not convert

CC/C=C\C[C@H]1C(=O)CC[C@@H]1CC(=O)OC [MeJA, Methyl (1R,2R)-3-Oxo-2-(2Z)-2-pentenyl-cyclopentaneacetate]
increase of the concentration of ginsenoside Rb1 (ginseng; PPD-type ginsenoside): 1.14 times
increase of the concentration of ginsenoside Rd (ginseng; PPD-type ginsenoside): 1.55 times
increase of the concentration of ginsenoside Re (ginseng; PPT-type ginsenoside): 1.45 times
increase of the concentration of ginsenoside Rg1 (ginseng; PPT-type ginsenoside): 2.61 times
expression of PgDS [3]: enhanced
expression of PgPPDS [4]: enhanced
expression level of PgUGT74A1 (PgUGT74A1 [5]): higher expression level
expression of PgPPTS [6]: not induced
expression level of PgUGT94B1 (PgUGT94B1 [7]): higher expression level

CC(C)=CCC[C@](C)(O)[C@H]1CC[C@]2(C)[C@@H]1[C@H](O)C[C@@H]1[C@@]3(C)CC[C@H](O)C(C)(C)[C@@H]3[C@@H](O)C[C@]12C [PPT, Protopanaxatriol]
glycosylation by PgUGT74A1 of the hydroxyl groups at the C-3, C-6, C-12 and C-20 positions (PgUGT74A1 [1]; regioselectivity, PPT): not glycosylated

CC(C)=CCC[C@](C)(O[C@@H]1O[C@H](CO)[C@@H](O)[C@H](O)[C@H]1O)[C@H]1CC[C@]2(C)[C@@H]1[C@H](O)C[C@@H]1[C@@]3(C)CC[C@H](O[C@@H]4O[C@H](CO)[C@@H](O)[C@H](O)[C@H]4O)C(C)(C)[C@@H]3CC[C@]12C [ginsenoside F2]
ginsenoside into which the substrate is converted by PgUGT74A1 (PgUGT74A1 [1]; HPLC): did not convert
ginsenoside into which the substrate is converted by PgUGT94B1 (PgUGT94B1 [2]; HPLC): Rd
ginsenoside into which the substrate is converted by PgUGT94B1 (PgUGT94B1 [2]; TLC): ginsenoside Rd

CC(C)=CCC[C@](C)(O)[C@H]1CC[C@]2(C)[C@@H]1[C@H](O)C[C@@H]1[C@@]3(C)CC[C@H](O[C@@H]4O[C@H](CO)[C@@H](O)[C@H](O)[C@H]4O)C(C)(C)[C@@H]3CC[C@]12C [ginsenoside Rh2]
ginsenoside into which the substrate is converted by PgUGT74A1 (PgUGT74A1 [1]; HPLC): did not convert
ginsenoside into which the substrate is converted by PgUGT94B1 (PgUGT94B1 [2]; HPLC): ginsenoside Rg3
ginsenoside into which the substrate is converted by PgUGT94B1 (PgUGT94B1 [2]; TLC): ginsenoside Rg3
